Source: patent US20090123907A1 (priority 2004, published 2009)

How the values were obtained:
[1] = system: platelets; experiment: Platelet preservation in platelet rich plasma with 1% citrate (lysine citrate); type: cell-based; details: PRP 1% citrate, room temperature
Method: In the experiment anticoagulated blood (0.4% citrate by weight) was centrifuged to produce platelet Rich Plasma (PRP). To test samples of PRP citric acid stock solution containing sufficient lysine to bring the solution pH to 7.0 was added to increase the citrate concentration to 1% by weight. Following this addition the pH of the mixture was 6.7. It will be apparent to one of skill in the art that the precise ratio of basic amino acid to citrate can be altered to adjust the pH of the either the stock solution or the final blood mixture. One sample of original PRP was used as the Normal Control, and one sample of the lysine citrate PRP was used as the Citrate Control. One sample of original PRP was inoculated with cultured Staphylococcus epidermidis to a final concentration of about 10 cfu/ml—this formed the Spiked Normal. […] The samples were incubated at room temperature for five days. Each day the number of platelets in each sample was counted; each sample was also tested for LDH (lactate dehydrogenase) and for the ability to induce a clot. Following the tests an aliquot of each sample was subcultured on nutrient agar and incubated under growth conditions.

[2] = system: platelets; experiment: Platelet rich plasma supplemented with 2% lysine citrate, 25 days storage; type: cell-based; details: room temperature
From the text: […]. In this experiment plasma is centrifuged to create platelet rich plasma (PRP). […]. For the first fifteen days the platelet parameters remain essentially unchanged. During the next five day period (days 16-20) the platelet count drifts down slightly and LDH level increases slightly. During the last five days (days 21-25), the platelet count drops off rather precipitously and the LDH level rises rather steeply. Yet clotting time remains relatively constant.

[3] = Day 1, spiked with Staphylococcus epidermidis about 10 cfu/ml
[4] = Day 2, spiked with Staphylococcus epidermidis about 10 cfu/ml
[5] = Day 3, spiked with Staphylococcus epidermidis about 10 cfu/ml
[6] = Day 4, spiked with Staphylococcus epidermidis about 10 cfu/ml
[7] = Day 5, spiked with Staphylococcus epidermidis about 10 cfu/ml

SMILES: NCCCC[C@H](N)C(=O)O.O=C(O)CC(O)(CC(=O)O)C(=O)O [Lysine Citrate, lysine citrate]
- Clot time [1, 3]: 29 s
- Count (platelets) [1, 3]: 2.99 × 10^5 per μl
- LDH [1, 3]: 131 IU/L
- Clot time ([1]; Day 1, unspiked): 35 s
- Count (platelets) ([1]; Day 1, unspiked): 3.2 × 10^5 per μl
- LDH ([1]; Day 1, unspiked): 133 IU/L
- Clot time [1, 4]: 32 s
- Count (platelets) [1, 4]: 3.0 × 10^5 per μl
- LDH [1, 4]: 130 IU/L
- Clot time ([1]; Day 2, unspiked): 30 s
- Count (platelets) ([1]; Day 2, unspiked): 3.1 × 10^5 per μl
- LDH ([1]; Day 2, unspiked): 133 IU/L
- Clot time [1, 5]: 30 s
- Count (platelets) [1, 5]: 3.0 × 10^5 per μl
- LDH [1, 5]: 133 IU/L
- Clot time ([1]; Day 3, unspiked): 32 s
- Count (platelets) ([1]; Day 3, unspiked): 3.3 × 10^5 per μl
- LDH ([1]; Day 3, unspiked): 134 IU/L
- Clot time [1, 6]: 30 s
- Count (platelets) [1, 6]: 3.2 × 10^5 per μl
- LDH [1, 6]: 131 IU/L
- Clot time ([1]; Day 4, unspiked): 35 s
- Count (platelets) ([1]; Day 4, unspiked): 3.5 × 10^5 per μl
- LDH ([1]; Day 4, unspiked): 133 IU/L
- Clotting time [1, 7]: 32 s
- Count (platelets) [1, 7]: 3.0 × 10^5 per μl
- LDH [1, 7]: 131 IU/L
- Clotting time ([1]; Day 5, unspiked): 33 s
- Count (platelets) ([1]; Day 5, unspiked): 3.1 × 10^5 per μl
- LDH ([1]; Day 5, unspiked): 135 IU/L
- Clotting time ([2]; Day 1, PRP): 30 s
- Count (platelets) ([2]; Day 1, PRP): 3.80 × 10^5 per μl
- LDH ([2]; Day 1, PRP): 106 IU/L
- Clotting time ([2]; Day 2, PRP): 30 s
- Count (platelets) ([2]; Day 2, PRP): 3.75 × 10^5 per μl
- LDH ([2]; Day 2, PRP): 108 IU/L
- Clotting time ([2]; Day 3, PRP): 30 s
- Count (platelets) ([2]; Day 3, PRP): 3.76 × 10^5 per μl
- LDH ([2]; Day 3, PRP): 109 IU/L
- Clotting time ([2]; Day 4, PRP): 30 s
- Count (platelets) ([2]; Day 4, PRP): 3.80 × 10^5 per μl
- LDH ([2]; Day 4, PRP): 108 IU/L
- Clotting time ([2]; Day 5, PRP): 31 s
- Count (platelets) ([2]; Day 5, PRP): 3.76 × 10^5 per μl
- LDH ([2]; Day 5, PRP): 108 IU/L
- Clotting time ([2]; Day 6, PRP): 31 s
- Count (platelets) ([2]; Day 6, PRP): 3.75 × 10^5 per μl
- LDH ([2]; Day 6, PRP): 106 IU/L
- Clotting time ([2]; Day 7, PRP): 32 s
- Count (platelets) ([2]; Day 7, PRP): 3.76 × 10^5 per μl
- LDH ([2]; Day 7, PRP): 109 IU/L
- Clotting time ([2]; Day 8, PRP): 30 s
- Count (platelets) ([2]; Day 8, PRP): 3.76 × 10^5 per μl
- LDH ([2]; Day 8, PRP): 109 IU/L
- Clotting time ([2]; Day 9, PRP): 31 s
- Count (platelets) ([2]; Day 9, PRP): 3.80 × 10^5 per μl
- LDH ([2]; Day 9, PRP): 108 IU/L
- Clotting time ([2]; Day 10, PRP): 30 s
- Count (platelets) ([2]; Day 10, PRP): 3.77 × 10^5 per μl
- LDH ([2]; Day 10, PRP): 109 IU/L
- Clotting time ([2]; Day 11, PRP): 29 s
- Count (platelets) ([2]; Day 11, PRP): 3.77 × 10^5 per μl
- LDH ([2]; Day 11, PRP): 109 IU/L
- Clotting time ([2]; Day 12, PRP): 30 s
- Count (platelets) ([2]; Day 12, PRP): 3.75 × 10^5 per μl
- LDH ([2]; Day 12, PRP): 108 IU/L
- Clotting time ([2]; Day 13, PRP): 30 s
- Count (platelets) ([2]; Day 13, PRP): 3.81 × 10^5 per μl
- LDH ([2]; Day 13, PRP): 110 IU/L
- Clotting time ([2]; Day 14, PRP): 31 s
- Count (platelets) ([2]; Day 14, PRP): 3.80 × 10^5 per μl
- LDH ([2]; Day 14, PRP): 110 IU/L
- Clotting time ([2]; Day 15, PRP): 30 s
- Count (platelets) ([2]; Day 15, PRP): 3.76 × 10^5 per μl
- LDH ([2]; Day 15, PRP): 109 IU/L
- Clotting time ([2]; Day 16, PRP): 29 s
- Count (platelets) ([2]; Day 16, PRP): 3.75 × 10^5 per μl
- LDH ([2]; Day 16, PRP): 109 IU/L
- Clotting time ([2]; Day 17, PRP): 30 s
- Count (platelets) ([2]; Day 17, PRP): 3.74 × 10^5 per μl
- LDH ([2]; Day 17, PRP): 108 IU/L
- Clotting time ([2]; Day 18, PRP): 30 s
- Count (platelets) ([2]; Day 18, PRP): 3.76 × 10^5 per μl
- LDH ([2]; Day 18, PRP): 110 IU/L
- Clotting time ([2]; Day 19, PRP): 31 s
- Count (platelets) ([2]; Day 19, PRP): 3.74 × 10^5 per μl
- LDH ([2]; Day 19, PRP): 111 IU/L
- Clotting time ([2]; Day 20, PRP): 30 s
- Count (platelets) ([2]; Day 20, PRP): 3.74 × 10^5 per μl
- LDH ([2]; Day 20, PRP): 111 IU/L
- Clotting time ([2]; Day 21, PRP): 30 s
- Count (platelets) ([2]; Day 21, PRP): 3.56 × 10^5 per μl
- LDH ([2]; Day 21, PRP): 103 IU/L
- Clotting time ([2]; Day 22, PRP): 31 s
- Count (platelets) ([2]; Day 22, PRP): 3.42 × 10^5 per μl
- LDH ([2]; Day 22, PRP): 105 IU/L
- Clotting time ([2]; Day 23, PRP): 26 s
- Count (platelets) ([2]; Day 23, PRP): 3.28 × 10^5 per μl
- LDH ([2]; Day 23, PRP): 122 IU/L
- Clotting time ([2]; Day 24, PRP): 29 s
- Count (platelets) ([2]; Day 24, PRP): 2.91 × 10^5 per μl
- LDH ([2]; Day 24, PRP): 159 IU/L
- Clotting time ([2]; Day 25, PRP): 26 s
- Count (platelets) ([2]; Day 25, PRP): 2.24 × 10^5 per μl
- LDH ([2]; Day 25, PRP): 279 IU/L
